Experimental data as given in patent publication US4576945A, “Hexaalkylmelamine-amino-oxy compounds” (priority 1984, dated 1986).
Structures can show the parent of a compound that is named as a salt.

Experiments:
[1] = vs HMM; background statement; cited from earlier work
[2] = tested on: ovarian cancer; conditions: clinical; cited from earlier work
[3] = tested on: N.C.I. animal anti-tumor screening systems; conditions: in vivo; cited from earlier work
[4] = tested on: advanced ovarian adenocarcinoma; conditions: concurrent use with cyclophosphamide, methotrexate and 5-fluorouracil; cited from earlier work
[5] = tested on: human disease; conditions: in vivo; cited from earlier work
[6] = tested on: human renal tumors; conditions: cited from earlier work
[7] = tested on: human pulmonary tumors; conditions: cited from earlier work
[8] = tested on: A-204 rhabdomysarcoma; test: Inhibition of colony formation by human tumor cell line A-204 (rhabdomysarcoma), long-term exposure; format: cell-based; conditions: Homo sapiens, A204, 216 h, 9 days, read-out: Percent survival (number of colonies in test dishes to colonies in control dishes times 100)
Method: (§1) Cytotoxic activity of O-HMM against in vitro human tumor cells was measured as inhibition of colony formation and the results expressed as a ratio of the number of colonies in test dishes to number of control dishes, times 100 (Table 4).
(§2) Inhibition of colony formation by human tumor
(§3) ^a Percent survival as measured by the number of colonies in test

[9] = tested on: A-549 lung carcinoma; test: Inhibition of colony formation by human tumor cell line A-549 (lung carcinoma), long-term exposure; format: cell-based; conditions: Homo sapiens, A549, 216 h, 9 days, read-out: Percent survival (number of colonies in test dishes to colonies in control dishes times 100)
Method: as §1, §2, §3

[10] = tested on: A-498 renal carcinoma; test: Inhibition of colony formation by human tumor cell line A-498 (renal carcinoma), long-term exposure; format: cell-based; conditions: Homo sapiens, A498, 216 h, 9 days, read-out: Percent survival (number of colonies in test dishes to colonies in control dishes times 100)
Method: as §1, §2, §3

[11] = tested on: A-101D melanoma; test: Inhibition of colony formation by human tumor cell line A-101D (melanoma), long-term exposure; format: cell-based; conditions: Homo sapiens, A101D, 216 h, 9 days, read-out: Percent survival (number of colonies in test dishes to colonies in control dishes times 100)
Method: as §1, §2, §3

[12] = 150 ug/ml, solubility may be limiting
[13] = 175 ug/ml, solubility may be limiting
[14] = 225 ug/ml, solubility may be limiting

CNc1nc(N(C)C)nc(N(C)C)n1 [pentamethylmelamine]
solubility compared with HMM [1]: more soluble

CN(C)c1nc(N(C)C)nc(N(C)C)n1 [HMM, hexamethylmelamine]
activity against ovarian cancer [2]: significant activity against ovarian cancer | activity in most N.C.I. animal anti-tumor screening systems [3]: no demonstrated activity | effectiveness against advanced ovarian adenocarcinoma [4]: effective against advanced ovarian adenocarcinoma | activity against human disease [5]: demonstrated activity against human disease | activity against human renal tumors in mice [6]: active | activity against human pulmonary tumors in mice [7]: active

CN(C)c1nc(N(C)C)nc(N(C)C)n1 [HMM.HCl, reference compound]
viability at 20 µg/mL ([8]; 20 ug/ml): 104 ± 12% | viability at 25 µg/mL ([8]; 25 ug/ml): 85 ± 8% | viability at 50 µg/mL ([8]; 50 ug/ml): 78 ± 15% | viability at 75 µg/mL ([8]; 75 ug/ml): 62 ± 24% | viability at 100 µg/mL ([8]; 100 ug/ml): 55 ± 27% | viability at 150 µg/mL [8, 12]: 35 ± 29% | viability at 175 µg/mL [8, 13]: 38 ± 26% | viability at 200 µg/mL ([8]; 200 ug/ml): 38 ± 21% | viability at 225 µg/mL [8, 14]: 40 ± 28% | viability at 10 µg/mL ([9]; 10 ug/ml): 95 ± 5% | viability at 20 µg/mL ([9]; 20 ug/ml): 93 ± 4% | viability at 25 µg/mL ([9]; 25 ug/ml): 91 ± 12% | viability at 50 µg/mL ([9]; 50 ug/ml): 95 ± 8% | viability at 75 µg/mL ([9]; 75 ug/ml): 87 ± 11% | viability at 100 µg/mL ([9]; 100 ug/ml): 86 ± 9% | viability at 150 µg/mL [9, 12]: 74 ± 17% | viability at 175 µg/mL [9, 13]: 59 ± 23% | viability at 200 µg/mL ([9]; 200 ug/ml): 61 ± 19% | viability at 20 µg/mL ([10]; 20 ug/ml): 97 ± 6% | viability at 25 µg/mL ([10]; 25 ug/ml): 90 ± 12% | viability at 50 µg/mL ([10]; 50 ug/ml): 75 ± 8% | viability at 75 µg/mL ([10]; 75 ug/ml): 61 ± 12% | viability at 100 µg/mL ([10]; 100 ug/ml): 50 ± 12% | viability at 150 µg/mL [10, 12]: 42 ± 18% | viability at 175 µg/mL [10, 13]: 43 ± 25% | viability at 200 µg/mL ([10]; 200 ug/ml): 42 ± 19% | viability at 225 µg/mL [10, 14]: 41 ± 8% | viability at 20 µg/mL ([11]; 20 ug/ml): 101 ± 4% | viability at 25 µg/mL ([11]; 25 ug/ml): 98 ± 11% | viability at 50 µg/mL ([11]; 50 ug/ml): 92 ± 13% | viability at 75 µg/mL ([11]; 75 ug/ml): 73 ± 5% | viability at 100 µg/mL ([11]; 100 ug/ml): 53 ± 11% | viability at 150 µg/mL [11, 12]: 37 ± 8% | viability at 175 µg/mL [11, 13]: 38 ± 9% | viability at 200 µg/mL ([11]; 200 ug/ml): 33 ± 8% | viability at 225 µg/mL [11, 14]: 29 ± 6%
